Assay [1] concerns the target T1, Orexin type 1 (OX1R) receptor (Homo sapiens, UniProt O43613).
T1 construct: expressed in transfected cells; host or cells: CHO cells (G418 selection)
T1 sequence (O43613 1-425): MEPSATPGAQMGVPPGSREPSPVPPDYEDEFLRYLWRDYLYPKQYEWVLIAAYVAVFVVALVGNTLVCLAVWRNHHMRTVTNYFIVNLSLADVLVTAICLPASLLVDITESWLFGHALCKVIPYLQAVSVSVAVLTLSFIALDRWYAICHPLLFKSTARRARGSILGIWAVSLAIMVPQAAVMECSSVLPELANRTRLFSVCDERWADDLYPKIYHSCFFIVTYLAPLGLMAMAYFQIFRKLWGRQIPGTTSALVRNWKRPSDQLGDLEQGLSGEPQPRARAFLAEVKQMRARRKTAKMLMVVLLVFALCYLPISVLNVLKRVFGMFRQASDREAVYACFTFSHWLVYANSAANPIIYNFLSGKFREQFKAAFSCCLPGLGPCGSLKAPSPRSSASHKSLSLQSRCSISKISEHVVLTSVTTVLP
Put plainly: In vitro orexin antagonism assay: intracellular calcium measurement (FLIPR), orexin-A 3 nM as agonist. To be noted: for IC50: first value of IC50/Kb cell; for inhibition at 1 µM: read-out: OX1R, % Inh. @ 1 uM; for Kb: second value of IC50/Kb cell. It counts as cell-based. The method, boiled down: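 CHO cells expressing the human orexin receptor were loaded with 3 μM fluo-4 AM plus 5 mM probenecid, then exposed to antagonist for 120 min before 3 nM orexin-A (final) was added on a FLIPR.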

Assay [2] deals with T2, human orexin-2 receptor (OX2R) (Homo sapiens, UniProt O43614).
T2 construct: expressed in transfected cells; host or cells: CHO cells (G418 selection)
T2 sequence (O43614 1-444): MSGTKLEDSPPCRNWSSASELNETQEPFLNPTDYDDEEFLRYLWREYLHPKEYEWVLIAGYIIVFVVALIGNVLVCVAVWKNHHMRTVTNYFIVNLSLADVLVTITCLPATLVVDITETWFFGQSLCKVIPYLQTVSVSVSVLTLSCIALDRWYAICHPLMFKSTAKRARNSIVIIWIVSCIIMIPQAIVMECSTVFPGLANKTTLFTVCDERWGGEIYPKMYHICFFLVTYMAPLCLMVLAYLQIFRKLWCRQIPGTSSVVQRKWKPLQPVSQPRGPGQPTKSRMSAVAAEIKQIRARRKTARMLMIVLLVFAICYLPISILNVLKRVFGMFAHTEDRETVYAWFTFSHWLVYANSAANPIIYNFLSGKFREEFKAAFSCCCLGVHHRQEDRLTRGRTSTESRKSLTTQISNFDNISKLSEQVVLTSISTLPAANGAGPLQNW
The assay is described as above. To be noted: for inhibition at 1 µM: read-out: OX2R, % Inh. @ 1 uM; for IC50: first value of IC50/Kb cell; for Kb: second value of IC50/Kb cell. In kind it is cell-based. The method, boiled down: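 CHO cells stably expressing human OX1R or OX2R, loaded with fluo-4 AM (3 μM, 5 mM probenecid) for 50 min at 37 °C, then 30 min at RT. Antagonist preincubated 120 min before 3 nM orexin-A; FLIPR fluorescence peak height vs vehicle gives IC50, possibly normalized to on-plate reference; geometric mean of repeats.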

As usually defined, the IC50 is the concentration needed to halve the response being measured. As usually defined, the Kb is the affinity of an antagonist, worked out from how it opposes an agonist.

With `O=C(c1nn2cccnc2c1-c1ccccn1)N1CCC[C@H]1Cn1ccc(-c2ccccn2)n1` [Example 185], in assay [1], the IC50 was determined as 16 nM, the inhibition at 1 µM is 94% and the antagonist dissociation constant (Kb) stood at 3 nM. Moreover, the inhibition at 1 µM in assay [2] worked out at 61%.

As to `O=C(c1nn2cccnc2c1-c1ccccn1)N1CCC[C@H]1Cc1nc(-c2ccccn2)no1` [Example 188], in assay [1], the IC50 is 29 nM, the inhibition at 1 µM was determined as 82% and the Kb turned out to be 6 nM. For the same molecule, the inhibition at 1 µM in assay [2] came out at 23%.

Consider `O=C(c1nn2cccnc2c1-c1ccccn1)N1CCC[C@H]1Cc1nc(-c2ccc(F)cn2)no1` [Example 189], for which, in assay [1], the IC50 turned out to be 18 nM, the inhibition at 1 µM came out at 94% and the Kb is 4 nM. Also, the inhibition at 1 µM in assay [2] came out at 43%.

Regarding `O=C(c1nn2cccnc2c1-c1ccccn1)N1CCC[C@H]1COc1ccc(C(F)(F)F)cn1` [Example 190], in assay [1], the IC50 stood at 5 nM, the inhibition at 1 µM was determined as 91% and the Kb was found to be 1 nM. The inhibition at 1 µM in assay [2] came out at 28%.

Take `O=C(c1c(-c2ncccn2)nn2ccccc12)N1CCC[C@H]1COc1ccc(C(F)(F)F)cn1` [Example 191]: in assay [1], the IC50 was determined as 49 nM, the inhibition at 1 µM was 100% and the Kb amounted to 10 nM. Moreover, the inhibition at 1 µM in assay [2] stood at 11%.

In the case of `O=C(c1c(-c2ccccn2)nn2ccccc12)N1CCC[C@H]1COc1ccc(C(F)(F)F)cn1` [Example 192], in assay [1], the IC50 came to 11 nM, the inhibition at 1 µM stood at 88% and the Kb was found to be 2 nM. Also, the inhibition at 1 µM in assay [2] is 49%.

With `O=C(c1nn2cccnc2c1-c1ccccn1)N1CCC[C@H]1Cn1ccc(-c2ccc(F)cn2)n1` [Example 193], in assay [1], the IC50 is 16 nM, the inhibition at 1 µM turned out to be 91% and the Kb is 3 nM. In assay [2], the inhibition at 1 µM came out at 71%.

With `O=C(c1nn2c(c1-c1ccccn1)OCCC2)N1CCC[C@H]1Cn1ccc(-c2ccccn2)n1` [Example 195], in assay [1], the IC50 turned out to be 15 nM, the inhibition at 1 µM came out at 100% and the Kb was 3 nM. Further, the inhibition at 1 µM in assay [2] worked out at 29%.

Consider `O=C(c1nn2c(c1-c1ccccn1)COCC2)N1CCC[C@H]1Cn1ccc(-c2ccc(F)cn2)n1` [Example 196], for which, in assay [1], the “OX1R, % Inh. @ 1 uM” value is recorded as 99%; the IC50 came out at 24 nM; the Kb was 5 nM. For the same molecule, the “OX2R, % Inh. @ 1 uM” value in assay [2] is 39%.

As to `O=C(c1nn2c(c1-c1ccccn1)OCCC2)N1CCC[C@H]1Cc1nc(-c2ccccn2)no1` [Example 199], the values for the inhibition at 1 µM in assay [1] and in assay [2] were 64% and 8%, respectively.

As to `O=C(c1nn2c(c1-c1ccccn1)OCCC2)N1CCC[C@H]1COc1ccc(C(F)(F)F)cn1` [Example 201], in assay [1], the IC50 amounted to 9 nM, the inhibition at 1 µM stood at 100% and the Kb was 2 nM. The inhibition at 1 µM in assay [2] is 19%.

For `O=C(c1c(-c2ncccn2)nn2ccccc12)N1CCC[C@H]1Cn1ccc(-c2ccc(F)cn2)n1` [Example 203], in assay [1], the IC50 is 17 nM, the inhibition at 1 µM is 98% and the Kb was determined as 4 nM. Further, the inhibition at 1 µM in assay [2] was 78%.

Regarding `O=C(c1c(-c2ncccn2)nn2ccccc12)N1CCC[C@H]1Cn1cc(-c2ccc(F)cn2)cn1` [Example 204], the inhibition at 1 µM turned out to be 53% in assay [1] and 66% in assay [2].

On to `O=C(c1c(-c2ccccn2)nn2ccccc12)N1CCC[C@H]1Cn1ccc(-c2ccc(F)cn2)n1` [Example 205], for which, in assay [1], the IC50 was 12 nM, the inhibition at 1 µM worked out at 99% and the Kb was 3 nM. Further, in assay [2], the IC50 was 24 nM, the inhibition at 1 µM was determined as 98% and the Kb is 4 nM.

On to `O=C(c1c(-c2ccccn2)nn2ccccc12)N1CCC[C@H]1Cn1cc(-c2ccc(F)cn2)cn1` [Example 206], for which the inhibition at 1 µM in assay [1] is 67%. Further, in assay [2], the IC50 was 62 nM, the inhibition at 1 µM is 83% and the Kb amounted to 11 nM.

Turning to `O=C(c1nc2ccccn2c1-c1ccccn1)N1CCC[C@H]1Cn1ccc(-c2ccc(F)cn2)n1` [Example 207], in assay [1], the IC50 was determined as 30 nM, the inhibition at 1 µM was found to be 99% and the Kb was found to be 6 nM. Also, the inhibition at 1 µM in assay [2] is 0%.

As to `O=C(c1nc2ccccn2c1-c1ccccn1)N1CCC[C@H]1Cc1nc(-c2ccccn2)no1` [Example 209], in assay [1], the half-maximal inhibitory concentration (IC50) stood at 300 nM, the inhibition at 1 µM amounted to 75% and the Kb is 63 nM. Besides, the inhibition at 1 µM in assay [2] was 4%.

In the case of `O=C(c1nc2ccccn2c1-c1ccccn1)N1CCC[C@H]1Cc1nc(-c2ccc(F)cn2)no1` [Example 210], in assay [1], the IC50 is 190 nM, the inhibition at 1 µM was determined as 85% and the Kb amounted to 40 nM. Also, the inhibition at 1 µM in assay [2] was 12%.

For `O=C(c1nn2c(c1-c1ccccn1)COCC2)N1CCC[C@H]1Cn1ccc(-c2ccccn2)n1` [Example 211], in assay [1], the IC50 was 19 nM, the inhibition at 1 µM is 100% and the Kb is 4 nM. In addition, the inhibition at 1 µM in assay [2] stood at 28%.

On to `O=C(c1nn2c(c1-c1ccccn1)COCC2)N1CCC[C@H]1Cn1ccc(-c2ccc(F)cn2)n1` [Example 212], for which, in assay [1], the “OX1R, % Inh. @ 1 uM” value stood at 96%; the 50% inhibitory concentration (IC50) was 35 nM; the Kb is 7 nM. The “OX2R, % Inh. @ 1 uM” value in assay [2] was found to be 46%.

Regarding `O=C(c1nn2c(c1-c1ccccn1)COCC2)N1CCC[C@H]1Cn1cc(-c2ccccn2)cn1` [Example 213], in assay [1], the IC50 worked out at 220 nM, the inhibition at 1 µM was 77% and the Kb was 47 nM. The inhibition at 1 µM in assay [2] was 33%.

With `O=C(c1nn2c(c1-c1ccccn1)COCC2)N1CCC[C@H]1Cn1cc(-c2ccc(F)cn2)cn1` [Example 214], the inhibition at 1 µM amounted to 66% in assay [1] and 32% in assay [2].

`O=C(c1nc2n(c1-c1ccccn1)CCOC2)N1CCC[C@H]1Cn1ccc(-c2ccccn2)n1` [Example 215]: the inhibition at 1 µM came out at 64% in assay [1] and 12% in assay [2].

Consider `O=C(c1nc2n(c1-c1ccccn1)CCOC2)N1CCC[C@H]1Cn1ccc(-c2ccc(F)cn2)n1` [Example 216], for which, in assay [1], the IC50 was found to be 160 nM, the inhibition at 1 µM turned out to be 70% and the Kb came to 34 nM. In assay [2], the inhibition at 1 µM was found to be 24%.

Take `O=C(c1nc2n(c1-c1ccccn1)CCOC2)N1CCC[C@H]1Cn1cc(-c2ccccn2)cn1` [Example 217]: in assay [1], the IC50 amounted to 210 nM, the inhibition at 1 µM amounted to 76% and the Kb stood at 45 nM. Moreover, the inhibition at 1 µM in assay [2] was determined as 57%.

Consider `O=C(c1nc2n(c1-c1ccccn1)CCOC2)N1CCC[C@H]1Cn1cc(-c2ccc(F)cn2)cn1` [Example 218], for which, in assay [1], the IC50 stood at 120 nM, the inhibition at 1 µM was determined as 79% and the Kb came to 25 nM. For the same molecule, the inhibition at 1 µM in assay [2] was 74%.

`O=C(c1nc2n(c1-c1ccccn1)CCOC2)N1CCC[C@H]1Cc1nc(-c2ccccn2)no1` [Example 219]: the values for the inhibition at 1 µM in assay [1] and in assay [2] were 25% and 0%, respectively.

For the molecule `O=C(c1nc2n(c1-c1ccccn1)CCOC2)N1CCC[C@H]1Cc1nc(-c2ccc(F)cn2)no1` [Example 220], the inhibition at 1 µM came to 21% in assay [1] and 0% in assay [2].

For the molecule `O=C(c1nn2c(c1-c1ccccn1)CCOC2)N1CCC[C@H]1Cc1nc(-c2ccccn2)no1` [Example 221], the inhibition at 1 µM in assay [1] worked out at 56%; in assay [2], 0%.

On to `O=C(c1nn2c(c1-c1ccccn1)CCOC2)N1CCC[C@H]1Cc1nc(-c2ccc(F)cn2)no1` [Example 222], for which the inhibition at 1 µM in assay [1] amounted to 55%; in assay [2], 12%.

For the molecule `O=C(c1nn2c(c1-c1ccccn1)COCC2)N1CCC[C@H]1COc1ccc(C(F)(F)F)cn1` [Example 223], in assay [1], the “OX1R, % Inh. @ 1 uM” value worked out at 97%; the IC50 was 5 nM; the Kb is 1 nM. Moreover, in assay [2], the “OX2R, % Inh. @ 1 uM” value was found to be 21%.

Source of the values: patent US20260070922A1, “PYRAZOLE AND IMIDAZOLE DERIVATIVES AS DUAL OREXIN AND KAPPA-OPIOID RECEPTORS MODULATORS COMPOSITION, METHODS FOR TREATING NEUROLOGICAL AND PSYCHIATRIC DISORDERS” (HAGER BIOSCIENCES, LLC, priority 2022, published 2026).
